Four compounds from patent US20070259914A1, “Novel Piperidine Derivates as Modulators of Chemokine Receptor Ccr5” (priority 2004, published 2007) can be followed below.

The structures appear in SMILES notation. pIC50: −log10 of the molar value.

In this assay the target is recombinant human CCR5 receptor (Homo sapiens, UniProt P51681). Nature of the assay: MIP-1α radioligand binding assay (scintillation proximity, CHO cell membranes). The note with it: displacement of 0.1 nM iodinated MIP-1α from membranes of Chinese hamster ovary cells expressing recombinant human CCR5; average if tested more than once. On the procedure:
The ability of compounds to inhibit the binding of MIP-1α was assessed by an in vitro radioligand binding assay. Membranes were prepared from Chinese hamster ovary cells which expressed the recombinant human CCR5 receptor. These membranes were incubated with 0.1 nM iodinated MIP-1α, scintillation proximity beads and various concentrations of the compounds of the invention in 96-well plates. The amount of iodinated MIP-1α bound to the receptor was determined by scintillation counting.
In Table II the results are presented as Pic50 values. […] If a as tested more than once then the data below is an average of the probative tests

recombinant human CCR5 receptor, sequence (P51681 whole entry): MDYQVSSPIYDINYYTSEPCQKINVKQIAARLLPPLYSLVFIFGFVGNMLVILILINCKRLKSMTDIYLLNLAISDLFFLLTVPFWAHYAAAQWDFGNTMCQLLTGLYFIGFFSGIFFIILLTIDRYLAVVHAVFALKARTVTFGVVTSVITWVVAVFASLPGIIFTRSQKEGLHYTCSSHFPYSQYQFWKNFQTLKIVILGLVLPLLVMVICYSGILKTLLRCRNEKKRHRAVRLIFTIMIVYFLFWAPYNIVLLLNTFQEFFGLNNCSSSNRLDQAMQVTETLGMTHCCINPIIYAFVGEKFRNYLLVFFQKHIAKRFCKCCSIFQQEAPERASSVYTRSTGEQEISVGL

As usually defined, the pIC50 is −log10 of the IC50, conventionally taken in molar units. With `CCN(C(=O)Cc1ccc(S(C)(=O)=O)cc1)C1CCN(CC[C@@H](c2cc(F)cc(F)c2)C2CCN(S(C)(=O)=O)CC2)CC1` [Compound 1, N-(1-{(3R)-3-(3,5-difluorophenyl)-3-[1-(methylsulfonyl)piperidin-4-yl]propyl}piperidin-4-yl)-N-ethyl-2-[4-(methylsulfonyl)phenyl]-acetamide], the pIC50 was 9.50.
For `CCN(C(=O)Cc1ccc(S(C)(=O)=O)cc1)C1CCN(CC[C@@H](c2cccc(C(F)(F)F)c2)C2CCN(S(C)(=O)=O)CC2)CC1` [Compound 3] the value was 8.45.
For `CS(=O)(=O)c1ccc(CC(=O)N(C2CC2)C2CCN(CC[C@@H](c3cc(F)cc(F)c3)C3CCN(S(C)(=O)=O)CC3)CC2)cc1` [Compound 4] the value was 8.80.
For `CCN(C(=O)NCc1ccc(S(C)(=O)=O)cc1)C1CCN(CC[C@@H](c2cc(F)cc(F)c2)C2CCN(S(C)(=O)=O)CC2)CC1` [Compound 2] the value was 9.30.
